Where “and” joins values, the source holds several entries; their conditions need not be identical. Equal entries are not always repeated.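 Each compound was tested at five concentrations against cells in 96-well plates for 48 hours. GI50 is the concentration that inhibits growth by half.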 Calls of active or inactive are those of the source. Rule as the data show it: active = GI50 up to about 1.1 µM and inactive = higher.
Experiments:
Assay in all cases: DTP human tumour cell line panel, 48 h
HOP-62 = tested on: HOP-62
OVCAR-4 = tested on: OVCAR-4
MDA-N = tested on: MDA-N
SNB-19 = tested on: SNB-19
T47D = tested on: T47D
MDA-MB-435 = tested on: MDA-MB-435
NCI-H23 = tested on: NCI-H23
RXF 393 = tested on: RXF 393
SN12C = tested on: SN12C
HCT-15 = tested on: HCT-15
A498 = tested on: A498
RPMI-8226 = tested on: RPMI-8226
OVCAR-5 = tested on: OVCAR-5
HT-29 = tested on: HT-29
BT-549 = tested on: BT-549
UACC-257 = tested on: UACC-257
OVCAR-8 = tested on: OVCAR-8
MDA-MB-231 = tested on: MDA-MB-231
NCI-H226 = tested on: NCI-H226
SK-OV-3 = tested on: SK-OV-3
K562 = tested on: K562
SNB-75 = tested on: SNB-75
TK-10 = tested on: TK-10
IGROV-1 = tested on: IGROV-1
EKVX = tested on: EKVX
LOX IMVI = tested on: LOX IMVI
DU-145 = tested on: DU-145
MOLT-4 = tested on: MOLT-4
SF-268 = tested on: SF-268
UACC-62 = tested on: UACC-62
CCRF-CEM = tested on: CCRF-CEM
NCI-H522 = tested on: NCI-H522
A549 = tested on: A549
MCF7 = tested on: MCF7
ACHN = tested on: ACHN
SF-539 = tested on: SF-539
HOP-92 = tested on: HOP-92
SW-620 = tested on: SW-620
UO-31 = tested on: UO-31
Malme-3M = tested on: Malme-3M
M14 = tested on: M14
SK-MEL-2 = tested on: SK-MEL-2
NCI/ADR-RES = tested on: NCI/ADR-RES
COLO 205 = tested on: COLO 205
HCC 2998 = tested on: HCC 2998
Hs-578T = tested on: Hs-578T
KM12 = tested on: KM12
CAKI-1 = tested on: CAKI-1
SK-MEL-28 = tested on: SK-MEL-28

Measured: GI50

COc1cccc(-c2cc(O)c3cc(N(C)C)ccc3n2)c1
0.00925 µM and 0.0116 µM: HCT-15
active: HOP-62 25.6 nM and 16.7 nM | MDA-N 1.24 nM and 2.27 nM | SNB-19 30.4 nM and 28.2 nM | MDA-MB-435 2.68 nM and 1.39 nM | NCI-H23 31.4 nM and 37.4 nM | RXF 393 1.76 nM and 18.8 nM | SN12C 44.9 nM and 24.3 nM | A498 < 0.01 µM | RPMI-8226 30.2 nM and 37.2 nM | OVCAR-5 48.1 nM and 41.5 nM | HT-29 22.9 nM and 14 nM | BT-549 0.681 µM | UACC-257 10.2 nM and 5.13 nM | OVCAR-8 32.2 nM and 18.2 nM | MDA-MB-231 42.7 nM and 25.8 nM | NCI-H226 37.6 nM and 23.7 nM
inactive: OVCAR-4 4.95 µM and 7.4 µM | T47D > 10 µM

Oc1cc(-c2ccc(F)cc2)nc2ncccc12
inactive: SK-OV-3 30.3 µM | K562 22.2 µM | HOP-62 98.2 µM | OVCAR-4 78.9 µM | SNB-75 20.7 µM | TK-10 > 100 µM | IGROV-1 67.5 µM | EKVX 39.4 µM | LOX IMVI 45.5 µM | SNB-19 80.2 µM | DU-145 74.6 µM | MOLT-4 52.7 µM | T47D 48.1 µM | SF-268 62.1 µM | UACC-62 33.8 µM | CCRF-CEM 36.2 µM | NCI-H522 35.4 µM | A549 52.8 µM | NCI-H23 63.4 µM | MCF7 38.5 µM | SN12C > 100 µM | ACHN 73.8 µM | SF-539 41 µM | A498 87.3 µM | HOP-92 45.3 µM | RPMI-8226 37.1 µM | SW-620 38.2 µM | OVCAR-5 98.9 µM | HT-29 42.7 µM | BT-549 > 100 µM | UO-31 34.4 µM | Malme-3M 65.6 µM | UACC-257 30.5 µM | M14 61.5 µM | SK-MEL-2 33.5 µM | NCI/ADR-RES 32.9 µM | OVCAR-8 77.8 µM | COLO 205 20.2 µM | HCC 2998 > 100 µM | MDA-MB-231 > 100 µM | Hs-578T 65.2 µM | NCI-H226 24.3 µM | KM12 31.9 µM | CAKI-1 70.5 µM | SK-MEL-28 > 100 µM
34.2 µM: HCT-15

— ChEMBL document CHEMBL1201862, “PubChem BioAssay data set” (2004)
